Assay results as given in ChEMBL document CHEMBL3046955, “Antiviral effects of three novel derivatives of adefovir on the replication of hepatitis B virus” (Med Chem Res, 2012).
Calls of active or inactive are those of the source. The rule behind the calls is not given here.

Key:
[1] = test system: HepG2; test: Cytotoxicity against Homo sapiens (human) HepG2 assessed as mitochondrial DNA level at 0.1 to 10 umol for 8 days by dot blot assay; assay type: cell-based; details: hepg2, 192 h
[2] = test system: HepG2; test: Cytotoxicity against Homo sapiens (human) HepG2 cells at <1000 uM after 72 hr by MTT assay; assay type: cell-based; details: hepg2, 72 h
[3] = test system: Duck hepatitis B virus; test: Antiviral activity against Duck hepatitis B virus (DHBV) infected duck assessed as reduced inflammation in liver at 2 to 50 mg/kg, po for 30 days; assay type: functional, organism-based
[4] = test system: Duck hepatitis B virus; test: Antiviral activity against Duck hepatitis B virus (DHBV) infected duck assessed as liver weight at 2 mg/kg, po for 30 days (reference value: 1.25 g); assay type: functional
[5] = test system: Duck hepatitis B virus; test: Antiviral activity against Duck hepatitis B virus (DHBV) infected duck assessed as liver weight at 10 mg/kg, po for 30 days (reference value: 1.25 g); assay type: functional
[6] = test system: Duck hepatitis B virus; test: Antiviral activity against Duck hepatitis B virus (DHBV) infected duck assessed as liver weight at 50 mg/kg, po for 30 days (reference value: 1.25 g); assay type: functional
[7] = test system: Duck hepatitis B virus; test: Antiviral activity against Duck hepatitis B virus (DHBV) infected duck assessed as reduction in viral DNA level at 2 to 50 mg/kg, po for 30 days measured on day 15 post initial treatment by RT-PCR analysis; assay type: functional, organism-based
[8] = test system: Duck hepatitis B virus; test: Antiviral activity against Duck hepatitis B virus (DHBV) infected duck assessed as reduction in viral DNA level at 2 to 50 mg/kg, po for 30 days measured on day 15 post termination of treatment by RT-PCR analysis; assay type: functional, organism-based
[9] = test system: Duck hepatitis B virus; test: Antiviral activity against Duck hepatitis B virus (DHBV) infected duck assessed as reduction in viral DNA level at 2 to 50 mg/kg, po for 30 days measured on day 30 by RT-PCR analysis; assay type: functional, organism-based
[10] = test system: Duck hepatitis B virus; test: Antiviral activity against Duck hepatitis B virus (DHBV) infected duck assessed as viral DNA level at 2 to 50 mg/kg, po for 30 days measured on day 15 post initial treatment by RT-PCR analysis; assay type: functional, organism-based
[11] = test system: Duck hepatitis B virus; test: Antiviral activity against Duck hepatitis B virus (DHBV) infected duck assessed as reduced inflammation in liver at 10 mg/kg, po for 30 days; assay type: functional, organism-based; design: dose 10 mg/kg
[12] = test system: Duck hepatitis B virus; test: Antiviral activity against Duck hepatitis B virus (DHBV) infected duck assessed as reduction in viral DNA level at 10 mg/kg, po for 30 days measured on day 15 post termination of treatment by RT-PCR analysis; assay type: functional, organism-based; design: dose 10 mg/kg
[13] = test system: Duck hepatitis B virus; test: Antiviral activity against Duck hepatitis B virus (DHBV) infected duck assessed as reduction in viral DNA level at 10 mg/kg, po for 30 days measured on day 30 by RT-PCR analysis; assay type: functional, organism-based; design: dose 10 mg/kg
[14] = test system: Duck hepatitis B virus; test: Antiviral activity against Duck hepatitis B virus (DHBV) infected duck assessed as viral DNA level at 10 mg/kg, po for 30 days measured on day 15 post initial treatment by RT-PCR analysis; assay type: functional, organism-based; design: dose 10 mg/kg
[15] = test system: HepG2; test: Cytotoxicity against Homo sapiens (human) HepG2 assessed as mitochondrial DNA level for 8 days by dot blot assay; assay type: cell-based; details: hepg2, 192 h
[16] = test system: Duck hepatitis B virus; test: Antiviral activity against Duck hepatitis B virus (DHBV) infected po dosed duck assessed as reduction in viral DNA level administered for 30 days measured on day 15 post termination of treatment by RT-PCR analysis; assay type: functional, organism-based
[17] = test system: Duck hepatitis B virus; test: Antiviral activity against Duck hepatitis B virus (DHBV) infected po dosed duck assessed as reduction in viral DNA level administered for 30 days measured on day 30 by RT-PCR analysis; assay type: functional, organism-based
[18] = test system: Duck hepatitis B virus; test: Antiviral activity against Duck hepatitis B virus (DHBV) infected po dosed duck assessed as reduction in viral DNA level administered for 30 days measured on day 15 post initial treatment by RT-PCR analysis; assay type: functional, organism-based

Structure (SMILES) | Activity [1] | Activity [2] | inhibition [3] | Activity [4] [g] | Activity [5] [g] | Activity [6] [g] | inhibition [7] | inhibition [8] | inhibition [9] | Activity [10] | inhibition [11] | inhibition [12] | inhibition [13] | Activity [14] | Activity [15] | inhibition [16] | inhibition [17] | inhibition [18]
COc1ccc(Sc2nc(N)nc3c2ncn3CCOCP(=O)(OCC(F)(F)F)OCC(F)(F)F)cc1F | Non-toxic | Non-toxic | Active | 0.8 | 0.8 | 0.85 | Active | Active | Active |  |  |  |  |  |  |  |  | 
CC(Cn1cnc2c(Sc3ccc4c(c3)CCO4)nc(N)nc21)OCP(=O)(OCC(F)(F)F)OCC(F)(F)F (stereo unspecified) | Non-toxic | Non-toxic | Active | 0.9 | 0.75 | 0.95 | Active | Active | Active | inactive |  |  |  |  |  |  |  | 
CC(C)(C)C(=O)OCOP(=O)(COCCn1cnc2c(N)ncnc21)OCOC(=O)C(C)(C)C [ADEFOVIR DIPIVOXIL] |  | Non-toxic |  |  | 0.8 |  |  |  |  |  | Active | Active | Active | inactive |  |  |  | 
Nc1ccn([C@H]2CC[C@@H](CO)O2)c(=O)n1 [ZALCITABINE] | Toxic |  |  |  |  |  |  |  |  |  |  |  |  |  | Dose-dependent effect |  |  | 
CSc1ccc(Sc2nc(N)nc3c2ncn3CCOCP(=O)(OCC(F)(F)F)OCC(F)(F)F)cc1 | Non-toxic | Non-toxic | Active | 0.8 | 0.75 | 0.55 |  |  |  |  |  |  |  |  |  | Dose-dependent effect | Dose-dependent effect | Dose-dependent effect
